The nature of one data set: in vivo. The conditions noted are these: male, Sprague-Dawley, rat, po, 6 mg/kg.
For data set [1] the following is noted: male, Sprague-Dawley, rat, in vivo, po, 6 mg/kg.
Experimental: (§1) Animals were given free access to food and water throughout the study and maintained under a 12-h light/dark cycle with temperature and humidity controlled according to Home Office regulations.
(§2) Blood samples (230 μL) were taken from the carotid artery at the following time points and placed in heparinized tubes: predose, 0.25, 0.5, 1, 2, 4, 8 and 24 h post dose. After the final time point the animals were sacrificed by an overdose of anaesthetic.
(§3) Blood samples were centrifuged to obtain the plasma, which was transferred to a separate labelled container. Aliquots from the individual time points for the three animals were analyzed singly. 80 μL of plasma was diluted with 20 μL of 1:1 ACN:water, then 800 μL chilled ACN was added, samples briefly vortex mixed and the centrifuged at 13000 rpm for 5 min at 4 °C. 500 μL of the resultant supernatant was further diluted with 500 μL water.
(§4) 20 μL sample was analyzed by LC-MS/MS using a C18 5 μm Gemini UHPLC column running a gradient of 90% 0.04% acetic acid in water to 90% ACN over 3 min at a flow rate of 0.5 mL min^−1. MS data was acquired under multiple reaction monitoring conditions using a turbo spray ion source. The concentration in the plasma was determined by comparison to standard curves of the administered compound prepared in blank plasma matrices and treated in an identical manner to the samples.

1 compound from article PMC6107785, “Thiodipeptides targeting the intestinal oligopeptide transporter as a general approach to improving oral drug delivery” (European Journal of Medicinal Chemistry, 2018) can be followed below.

Like-named read-outs stand apart in the source and are kept apart here.

Experimental for in vivo: as §1, §2, §3, §4

With `CC(C)Cc1ccc(C(C)C(=O)O)cc1` (stereo not shown) [Ibuprofen], in “in vivo”, the exposure (AUC) came out at 14000 ± 1800 ng·h/mL. This compound also returned a Cmax in the data set “in vivo” (CMax) of 5700 ± 600 ng/mL. For the same compound, the values for the Tmax (in “in vivo” (tmax); in data set [1]) were 1 h and 42 ± 18 min, respectively.

For orientation: AUC means the area under the concentration-time curve, a measure of exposure. Broadly, the Cmax is the highest concentration seen after dosing. One may read the Tmax as the time from dosing to the highest level.
